From patent US20170057955A1, “Pyridopyrimidinone Compounds for Modulating the Catalytic Activity of Histone Lysine Demethylases (KDMs)” (Dong-A Socio Holdings Co., Ltd., priority 2015, published 2017)

Molecular target: T1, Recombinant human JARID1B/KDM5B (Homo sapiens, UniProt Q9UGL1)
T1 construct: purchased Active Motif 31432; host or cells: Sf9 insect cells
Assay: LANCE Ultra TR-FRET JARID1B (KDM5B) demethylase inhibition assay
Format: biochemical
Conditions: 0.1 uM of test-compounds, FLAG-JARID1B, 500 nM biotinylated H3K4me3 peptide substrate, 30 min at room temperature
From the text: FLAG-tagged JARID1B (also known as KDM5B) protein was screened against 49 compounds. For this compound screening, LANCE Ultra time-resolved fluorescence resonance energy transfer (TR-FRET) assay was employed using a europoium (Eu)-labeled antibody that can specifically recognize mono- or dimethylated peptides (H3K4me2/1) and ULight-streptavidin (ULight-SA), a small molecule fluorescent dye. When irradiated at 340 nm, the energy from the Eu donor is transferred to the ULight acceptor dye which, in turn, emits light primarily at 665 nm. The ratio between the intensity of primary emission at 665 nm and that of secondary emission at […] was used to quantify the level of lysine methylation. As JARID1B removes more methyl moieties from tri-methylated substrate peptides (H3K4me3), the ratio increases until the enzyme reaction is terminated. In case, therefore, the compounds disrupt the enzymatic activity completely, the ratio becomes equal to a background value.
Recombinant human JARID1B/KDM5B (accession number NP_006609) of molecular weight 179.9 KDa was expressed in Sf9 insect cells and contains an N-terminal FLAG tag. The enzyme was obtained from Active Motif (Catalog No. 31432). The tri-methylated histone substrate peptide of purity greater than 95% was a synthetic peptide in which the first 21 amino acids correspond to the human histone H3 sequence with three extra amino acids and a biotin motif (GGK-biotin) linked to the C-terminus [sequence: ART-K(Me3)-QTARKSTGGKAPRKQLA-GGK-biotin-OH], (AnaSpec, Fremont, Calif. Catalog. No. ANA-1413). The reference inhibitor compound tranylcypromine (or trans-2-phenylcyclopropylamine hydrochloride, also known as, 2-PCPA) was purchased from Sigma (St. Louis, Mo. Cat. no. P8511). ULight-labeled streptavidin (ULight-SA, Catalog no. TRF0102), Eu-W1024-labeled anti-methyl-Histone H3 Lysine 4 (H3K4me1-2) Antibody (Catalog no. TRF0402), and LANCE detection buffer 10× (Catalog no. CR97-100) were obtained from PerkinElmer (Montreal, Quebec, Canada). The TR-FRET experiments were carried out in white, low-volume 384-wellplates purchased from PerkinElmer (ProxiPlate_-384 Plus, Catalog no. 6008280).
The TR-FRET signal was measured in the presence both of the bio-H3K4me3 peptide and FLAG-JARID1B by detecting any H3K4me2/1 peptide produced in the assay system. Assays using only the bio-H3K4me2 peptide were served as a positive control. Robust enzymatic progressions were observed by using JARID1B at concentrations ranging from 10 to 30 nM. In a typical TR-FRET experiment, JARID1B was pre-incubated with or without 0.1 uM of test-compounds (containing 1% DMSO final) for 5 min. The enzymatic reactions were initiated by the addition of 500 nM biotinylated H3K4me3 peptide substrate plus 500 uM of 2-OG 25 uM Fe(II) and 2 mM ascorbate. The reaction buffer also contained 50 mM Hepes (pH7.5), 0.01% (v/v) Tween 20, and 50 mM NaCl. The reaction mixture was incubated for 30 min at room temperature before reading on an EnVision plate reader (PerkinElmer, Waltham, Mass.).

T1 sequence (Q9UGL1 whole entry): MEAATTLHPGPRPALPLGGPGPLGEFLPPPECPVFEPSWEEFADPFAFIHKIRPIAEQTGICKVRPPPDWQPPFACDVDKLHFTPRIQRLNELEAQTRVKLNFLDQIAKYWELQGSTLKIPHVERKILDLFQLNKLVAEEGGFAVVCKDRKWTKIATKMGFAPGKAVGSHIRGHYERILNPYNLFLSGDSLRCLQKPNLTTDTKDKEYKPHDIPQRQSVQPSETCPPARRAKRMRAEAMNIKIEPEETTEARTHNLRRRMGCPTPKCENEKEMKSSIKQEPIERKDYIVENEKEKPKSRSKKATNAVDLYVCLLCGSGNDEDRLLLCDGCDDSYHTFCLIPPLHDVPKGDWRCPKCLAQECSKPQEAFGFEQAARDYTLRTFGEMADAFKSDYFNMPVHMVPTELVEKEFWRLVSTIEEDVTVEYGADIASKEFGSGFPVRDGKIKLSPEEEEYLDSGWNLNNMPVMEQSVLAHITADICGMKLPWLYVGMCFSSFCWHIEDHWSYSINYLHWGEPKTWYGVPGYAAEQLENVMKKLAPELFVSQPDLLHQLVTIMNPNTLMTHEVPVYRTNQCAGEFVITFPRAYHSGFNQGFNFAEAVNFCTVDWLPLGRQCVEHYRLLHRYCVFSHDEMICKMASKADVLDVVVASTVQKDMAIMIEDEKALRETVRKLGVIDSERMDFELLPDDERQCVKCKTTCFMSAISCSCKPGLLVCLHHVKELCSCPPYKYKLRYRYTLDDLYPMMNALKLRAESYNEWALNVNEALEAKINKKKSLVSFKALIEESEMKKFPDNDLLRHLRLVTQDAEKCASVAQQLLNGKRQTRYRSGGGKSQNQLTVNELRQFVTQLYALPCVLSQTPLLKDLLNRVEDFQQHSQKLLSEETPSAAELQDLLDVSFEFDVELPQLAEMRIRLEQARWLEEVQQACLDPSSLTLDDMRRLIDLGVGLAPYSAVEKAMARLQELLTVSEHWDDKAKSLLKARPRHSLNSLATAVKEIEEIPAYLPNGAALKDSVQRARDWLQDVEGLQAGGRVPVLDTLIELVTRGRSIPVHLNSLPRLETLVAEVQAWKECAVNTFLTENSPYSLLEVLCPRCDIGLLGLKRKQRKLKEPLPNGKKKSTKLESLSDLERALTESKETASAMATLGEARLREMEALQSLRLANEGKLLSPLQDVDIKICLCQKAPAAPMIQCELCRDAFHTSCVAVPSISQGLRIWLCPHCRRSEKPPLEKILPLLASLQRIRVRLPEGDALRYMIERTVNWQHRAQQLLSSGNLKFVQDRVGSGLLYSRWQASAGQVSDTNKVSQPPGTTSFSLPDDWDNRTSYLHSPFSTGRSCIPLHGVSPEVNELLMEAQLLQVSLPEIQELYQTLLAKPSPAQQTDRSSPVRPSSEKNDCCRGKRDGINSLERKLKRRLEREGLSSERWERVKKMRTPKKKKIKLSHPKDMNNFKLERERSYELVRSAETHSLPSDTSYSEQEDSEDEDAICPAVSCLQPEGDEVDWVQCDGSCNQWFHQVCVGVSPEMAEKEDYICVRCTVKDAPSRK

## O=c1[nH]cnc2c(-c3cnn(CCN4CCOCC4)c3)nccc12 [Compound 65, 8-(1-(2-morpholinoethyl)-1H-pyrazol-4-yl)pyrido[3,4-d]pyrimidin-4(3H)-one]
  inhibition at 0.1 µM: 20 to 50%

## CC(=O)Nc1ccc(-c2cn(-c3nccc4c(=O)[nH]cnc34)nc2N)cc1 [Compound 18, N-(4-(3-amino-1-(4-oxo-3,4-dihydropyrido[3,4-d]pyrimidin-8-yl)-1H-pyrazol-4-yl)phenyl)acetamide]
  inhibition at 0.1 µM: 20 to 50%

## Cn1cc(-c2cn(-c3nccc4c(=O)[nH]cnc34)nc2N)cn1 [Compound 15, 8-(3-amino-1′-methyl-1H,1′H-[4,4'-bipyrazol]-1-yl)pyrido[3,4-d]pyrimidin-4(3H)-one]
  inhibition at 0.1 µM: 20 to 50%

## Cc1nc2c(-c3csc(NCCO)n3)nccc2c(=O)[nH]1 [Compound 137, 8-(2-((2-hydroxyethyl)amino)thiazol-4-yl)-2-methylpyrido [3,4-d]pyrimidin-4(3H)-one]
  inhibition at 0.1 µM: < 20%

## Nc1nn(-c2nccc3c(=O)[nH]cnc23)cc1-c1cccc(Cl)c1 [Compound 32, 8-(3-amino-4-(3-chlorophenyl)-1H-pyrazol-1-yl)pyrido[3,4-d]pyrimidin-4(3H)-one]
  inhibition at 0.1 µM: 20 to 50%

## O=c1[nH]cnc2c(-n3cc(-c4ccc(F)cc4)cn3)nccc12 [Compound 4, 8-(4-(4-fluorophenyl)-1H-pyrazol-1-yl)pyrido[3,4-d]pyrimidin-4(3H)-one]
  inhibition at 0.1 µM: < 20%

## Nc1nn(-c2nccc3c(=O)[nH]cnc23)cc1-c1cccc(CO)c1 [Compound 36, 8-(3-amino-4-(3-(hydroxymethyl)phenyl)-1H-pyrazol-1-yl)pyrido[3,4-d]pyrimidin-4(3H)-one]
  inhibition at 0.1 µM: 20 to 50%

## CC1CCN(c2cccc(-c3nccc4c(=O)[nH]c(COc5ccc(F)c(Cl)c5)nc34)n2)CC1 [Compound 115, 2-((3-chloro-4-fluorophenoxy)methyl)-8-(6-(4-methylpiperidin-1-yl)pyridin-2-yl)pyrido[3,4-d]pyrimidin-4(3H)-one]
  inhibition at 0.1 µM: < 20%

## CN(C)CCNc1nc(-c2nccc3c(=O)[nH]cnc23)cs1 [Compound 43, 8-(2-((2-(dimethylamino)ethyl)amino)thiazol-4-yl)pyrido[3,4-d]pyrimidin-4(3H)-one]
  inhibition at 0.1 µM: 20 to 50%

## O=c1[nH]c(COc2ccc(F)c(Cl)c2)nc2c(-c3csc(NCCCc4ccccc4Cl)n3)nccc12 [Compound 109, 2-((3-chloro-4-fluorophenoxy)methyl)-8-(2-((3-(2-chlorophenyl)propyl)amino)thiazol-4-yl)pyrido[3,4-d]pyrimidin-4(3H)-one]
  inhibition at 0.1 µM: < 20%

## O=c1[nH]c(COc2ccc(F)c(Cl)c2)nc2c(-c3csc(NCC4CCNCC4)n3)nccc12 [Compound 99, 2-((3-chloro-4-fluorophenoxy)methyl)-8-(2-((piperidin-4-ylmethyl)amino)thiazol-4-yl)pyrido[3,4-d]pyrimidin-4(3H)-one]
  inhibition at 0.1 µM: 20 to 50%

## NCCNc1nc(-c2nccc3c(=O)[nH]cnc23)cs1 [Compound 44, 8-(2-((2-aminoethyl)amino)thiazol-4-yl)pyrido[3,4-d]pyrimidin-4(3H)-one]
  inhibition at 0.1 µM: 20 to 50%

## CN1CCC(Nc2nc(-c3nccc4c(=O)[nH]c(COc5ccc(F)cc5)nc34)cs2)CC1 [Compound 127, 2-((4-fluorophenoxy)methyl)-8-(2-((1-methylpiperidin-4-yl)amino)thiazol-4-yl)pyrido[3,4-d]pyrimidin-4(3H)-one]
  inhibition at 0.1 µM: ≥ 50%

## O=C(c1ccccc1)c1ccc(OCc2nc3c(-c4csc(NCCO)n4)nccc3c(=O)[nH]2)cc1 [Compound 160, 2-((4-benzoylphenoxy)methyl)-8-(2-((2-hydroxyethyl)amino)thiazol-4-yl)pyrido[3,4-d]pyrimidin-4(3H)-one]
  inhibition at 0.1 µM: 20 to 50%

## O=c1[nH]c(COCc2ccccc2)nc2c(-c3csc(NCCO)n3)nccc12 [Compound 142, 2-((benzyloxy)methyl)-8-(2-((2-hydroxyethyl)amino)thiazol-4-yl)pyrido[3,4-d]pyrimidin-4(3H)-one]
  inhibition at 0.1 µM: 20 to 50%

## CN1CCC(CNc2nc(-c3nccc4c(=O)[nH]cnc34)cs2)C1 (centres unmarked) [Compound 59, 8-(2-(((1-methylpyrrolidin-3-yl)methyl)amino)thiazol-4-yl)pyrido[3,4-d]pyrimidin-4(3H)-one]
  inhibition at 0.1 µM: 20 to 50%

## CN1CCN(CCNc2nc(-c3nccc4c(=O)[nH]cnc34)cs2)CC1 [Compound 45, 8-(2-((2-(4-methylpiperazin-1-yl)ethyl)amino)thiazol-4-yl)pyrido[3,4-d]pyrimidin-4(3H)-one]
  inhibition at 0.1 µM: 20 to 50%

## Nc1nn(-c2nccc3c(=O)[nH]cnc23)cc1-c1cnn(Cc2ccccc2)c1 [Compound 28, 8-(3-amino-1′-benzyl-1H,1′H-[4,4′-bipyrazol]-1-yl)pyrido[3,4-d]pyrimidin-4(3H)-one]
  inhibition at 0.1 µM: ≥ 50%

## CCN(CC)c1nc(-c2nccc3c(=O)[nH]c(COc4ccc(F)c(Cl)c4)nc23)cs1 [Compound 105, 2-((3-chloro-4-fluorophenoxy)methyl)-8-(2-(diethylamino)thiazol-4-yl)pyrido[3,4-d]pyrimidin-4(3H)-one]
  inhibition at 0.1 µM: < 20%

## NCCNc1nc(-c2nccc3c(=O)[nH]c(COc4ccc(F)c(Cl)c4)nc23)cs1 [Compound 88, 8-(2-((2-aminoethyl)amino)thiazol-4-yl)-2-((3-chloro-4-fluorophenoxy)methyl) pyrido[3,4-d]pyrimidin-4(3H)-one]
  inhibition at 0.1 µM: ≥ 50%

## CN1CCN(c2ccc(-c3cn(-c4nccc5c(=O)[nH]cnc45)nc3N)cc2)CC1 [Compound 17, 8-(3-amino-4-(4-(4-methylpiperazin-1-yl)phenyl)-1H-pyrazol-1-yl)pyrido[3,4-d]pyrimidin-4(3H)-one]
  inhibition at 0.1 µM: 20 to 50%

## Nc1nn(-c2nccc3c(=O)[nH]cnc23)cc1-c1cccc(OCc2ccccc2)c1 [Compound 31, 8-(3-amino-4-(3-(benzyloxy)phenyl)-1H-pyrazol-1-yl)pyrido[3,4-d]pyrimidin-4(3H)-one]
  inhibition at 0.1 µM: ≥ 50%

## COCCN1CCC(CNc2nc(-c3nccc4c(=O)[nH]cnc34)cs2)CC1 [Compound 53, 8-(2-(((1-(2-methoxyethyl)piperidin-4-yl)methyl)amino)thiazol-4-yl)pyrido[3,4-d]pyrimidin-4(3H)-one]
  inhibition at 0.1 µM: ≥ 50%

## CN1CCCC1CCNc1nc(-c2nccc3c(=O)[nH]cnc23)cs1 (centres unmarked) [Compound 48, 8-(2-((2-(1-methylpyrrolidin-2-yl)ethyl)amino)thiazol-4-yl)pyrido[3,4-d]pyrimidin-4(3H)-one]
  inhibition at 0.1 µM: 20 to 50%

## O=c1[nH]cnc2c(-c3csc(NCCO)n3)nccc12 [Compound 38, 8-(2-((2-hydroxyethyl)amino)thiazol-4-yl)pyrido[3,4-d]pyrimidin-4(3H)-one]
  inhibition at 0.1 µM: ≥ 50%

## O=c1[nH]c(COc2ccc(F)c(Cl)c2)nc2c(-c3nccs3)nccc12 [Compound 74, 2-((3-chloro-4-fluorophenoxy)methyl)-8-(thiazol-2-yl)pyrido[3,4-d]pyrimidin-4(3H)-one]
  inhibition at 0.1 µM: 20 to 50%

## CN1CCN(CCNc2nc(-c3nccc4c(=O)[nH]c(COCc5ccccc5)nc34)cs2)CC1 [Compound 151, 2-((benzyloxy)methyl)-8-(2-((2-(4-methylpiperazin-1-yl)ethyl)amino)thiazol-4-yl)pyrido[3,4-d]pyrimidin-4(3H)-one]
  inhibition at 0.1 µM: < 20%

## O=c1[nH]c(COCc2ccccc2)nc2c(-c3csc(NCC4CCN(CCO)CC4)n3)nccc12 [Compound 153, 2-((benzyloxy)methyl)-8-(2-(((1-(2-hydroxyethyl)piperidin-4-yl)methyl)amino)thiazol-4-yl)pyrido[3,4-d]pyrimidin-4(3H)-one]
  inhibition at 0.1 µM: < 20%

## Nc1ccn(-c2nccc3c(=O)[nH]c(COc4ccc(Cc5ccccc5)cc4)nc23)n1 [Compound 69, 8-(3-amino-1H-pyrazol-1-yl)-2-((4-benzylphenoxy)methyl) pyrido[3,4-d]pyrimidin-4(3H)-one]
  inhibition at 0.1 µM: < 20%
